ChEMBL document CHEMBL1201862, “PubChem BioAssay data set” (2004)
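48-hour exposure; five concentrations; linearly interpolated endpoints. Here, GI50 denotes the concentration required for 50% inhibition of growth.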 Calls of active or inactive are those of the source. Cut-off read from the data, not from the text of the source: active = GI50 up to about 1.1 µM and inactive = higher.

Tests used:
Assay in all cases: inhibition of tumour cell growth, NCI panel, 48 h
EKVX = test system: EKVX
HOP-92 = test system: HOP-92
Hs-578T = test system: Hs-578T
SF-268 = test system: SF-268
OVCAR-8 = test system: OVCAR-8
SK-MEL-2 = test system: SK-MEL-2
M14 = test system: M14
MOLT-4 = test system: MOLT-4
MDA-MB-435 = test system: MDA-MB-435
SR = test system: SR
CAKI-1 = test system: CAKI-1
SF-295 = test system: SF-295
SNB-19 = test system: SNB-19
IGROV-1 = test system: IGROV-1
MDA-MB-231 = test system: MDA-MB-231
SF-539 = test system: SF-539
TK-10 = test system: TK-10
MDA-N = test system: MDA-N
SN12C = test system: SN12C
UACC-257 = test system: UACC-257
Malme-3M = test system: Malme-3M
SK-MEL-5 = test system: SK-MEL-5
K562 = test system: K562
PC-3 = test system: PC-3
CCRF-CEM = test system: CCRF-CEM
DU-145 = test system: DU-145
SW-620 = test system: SW-620
ACHN = test system: ACHN
HCT-116 = test system: HCT-116
UACC-62 = test system: UACC-62
COLO 205 = test system: COLO 205
U-251 = test system: U-251
UO-31 = test system: UO-31
MCF7 = test system: MCF7
HT-29 = test system: HT-29
KM12 = test system: KM12
NCI-H460 = test system: NCI-H460
SK-OV-3 = test system: SK-OV-3
NCI-H23 = test system: NCI-H23
RPMI-8226 = test system: RPMI-8226
786-0 = test system: 786-0
BT-549 = test system: BT-549
NCI/ADR-RES = test system: NCI/ADR-RES
HL-60 = test system: HL-60
NCI-H522 = test system: NCI-H522
OVCAR-3 = test system: OVCAR-3
T47D = test system: T47D
A549 = test system: A549
HCT-15 = test system: HCT-15
OVCAR-5 = test system: OVCAR-5
HOP-62 = test system: HOP-62
NCI-H226 = test system: NCI-H226
SK-MEL-28 = test system: SK-MEL-28
OVCAR-4 = test system: OVCAR-4
A498 = test system: A498
RXF 393 = test system: RXF 393
SNB-75 = test system: SNB-75
LOX IMVI = test system: LOX IMVI
HCC 2998 = test system: HCC 2998

Structure (SMILES): Cc1cc2cc3c(cc2c(-c2ccc(N)cc2)n1)OCO3
- GI50 (EKVX): 35.4 µM (inactive)
- GI50 (HOP-92): 13.9 µM (inactive)
- GI50 (Hs-578T): 51.3 µM (inactive)
- GI50 (SF-268): 22.3 µM (inactive)
- GI50 (OVCAR-8): 81.7 µM (inactive)
- GI50 (SK-MEL-2): 82.8 µM (inactive)
- GI50 (M14): 81.8 µM (inactive)
- GI50 (MOLT-4): 13.8 µM (inactive)
- GI50 (MDA-MB-435): 76.6 µM (inactive)
- GI50 (SR): 15.6 µM (inactive)
- GI50 (CAKI-1): 26.5 µM (inactive)
- GI50 (SF-295): 34.2 µM (inactive)
- GI50 (SNB-19): > 100 µM (inactive)
- GI50 (IGROV-1): 14.5 µM (inactive)
- GI50 (MDA-MB-231): 13.7 µM (inactive)
- GI50 (SF-539): > 100 µM (inactive)
- GI50 (TK-10): 39.9 µM (inactive)
- GI50 (MDA-N): 23.3 µM (inactive)
- GI50 (SN12C): 39.4 µM (inactive)
- GI50 (UACC-257): > 100 µM (inactive)
- GI50 (Malme-3M): 86.9 µM (inactive)
- GI50 (SK-MEL-5): 24.2 µM (inactive)
- GI50 (K562): 23.1 µM (inactive)
- GI50 (PC-3): 40.7 µM (inactive)
- GI50 (CCRF-CEM): 28.5 µM (inactive)
- GI50 (DU-145): 49.9 µM (inactive)
- GI50 (SW-620): 31.6 µM (inactive)
- GI50 (ACHN): 39.5 µM (inactive)
- GI50 (HCT-116): 31.6 µM (inactive)
- GI50 (UACC-62): 30.8 µM (inactive)
- GI50 (COLO 205): 26.8 µM (inactive)
- GI50 (U-251): 62.5 µM (inactive)
- GI50 (UO-31): 29.2 µM (inactive)
- GI50 (MCF7): 7.74 µM (inactive)
- GI50 (HT-29): 22.2 µM (inactive)
- GI50 (KM12): 38.9 µM (inactive)
- GI50 (NCI-H460): 21.3 µM (inactive)
- GI50 (SK-OV-3): > 100 µM (inactive)
- GI50 (NCI-H23): 61.2 µM (inactive)
- GI50 (RPMI-8226): 23.8 µM (inactive)
- GI50 (786-0): 25.6 µM (inactive)
- GI50 (BT-549): > 100 µM (inactive)
- GI50 (NCI/ADR-RES): 72.9 µM (inactive)
- GI50 (HL-60): 12 µM (inactive)
- GI50 (NCI-H522): 42.5 µM (inactive)
- GI50 (OVCAR-3): 22.4 µM (inactive)
- GI50 (T47D): 29.6 µM (inactive)
- GI50 (A549): 74.1 µM (inactive)
- GI50 (HCT-15): 53 µM
- GI50 (OVCAR-5): 36.6 µM (inactive)
- GI50 (HOP-62): 57.1 µM (inactive)

Structure (SMILES): CCC/C(Cl)=N\OC(=O)Nc1ccc(OC(F)(F)F)cc1
- GI50 (EKVX): 10.1 µM (inactive)
- GI50 (HOP-92): 2.22 µM (inactive)
- GI50 (Hs-578T): 28.1 µM (inactive)
- GI50 (SF-268): 24.7 µM (inactive)
- GI50 (NCI-H226): 15.6 µM (inactive)
- GI50 (SK-MEL-28): 19.6 µM (inactive)
- GI50 (OVCAR-4): 18.6 µM (inactive)
- GI50 (OVCAR-8): 16.7 µM (inactive)
- GI50 (SK-MEL-2): 17.6 µM (inactive)
- GI50 (M14): 6.52 µM (inactive)
- GI50 (MOLT-4): 1.86 µM (inactive)
- GI50 (MDA-MB-435): 22.1 µM (inactive)
- GI50 (A498): 23.8 µM (inactive)
- GI50 (CAKI-1): 1.66 µM (inactive)
- GI50 (SF-295): 16.3 µM (inactive)
- GI50 (SNB-19): 30.3 µM (inactive)
- GI50 (IGROV-1): 6.93 µM (inactive)
- GI50 (MDA-MB-231): 9.93 µM (inactive)
- GI50 (SF-539): 16.7 µM (inactive)
- GI50 (TK-10): 3.3 µM (inactive)
- GI50 (MDA-N): 13.5 µM (inactive)
- GI50 (RXF 393): 16 µM (inactive)
- GI50 (SN12C): 8.57 µM (inactive)
- GI50 (UACC-257): 19.6 µM (inactive)
- GI50 (Malme-3M): 1.68 µM (inactive)
- GI50 (SK-MEL-5): 5.4 µM (inactive)
- GI50 (K562): 2.42 µM (inactive)
- GI50 (PC-3): 17.7 µM (inactive)
- GI50 (CCRF-CEM): 2.47 µM (inactive)
- GI50 (DU-145): 18 µM (inactive)
- GI50 (SW-620): 2.53 µM (inactive)
- GI50 (ACHN): 2.19 µM (inactive)
- GI50 (HCT-116): 9.4 µM (inactive)
- GI50 (UACC-62): 18.8 µM (inactive)
- GI50 (COLO 205): 1.82 µM (inactive)
- GI50 (U-251): 27 µM (inactive)
- GI50 (UO-31): 8.53 µM (inactive)
- GI50 (MCF7): 8.26 µM (inactive)
- GI50 (HT-29): 18.2 µM (inactive)
- GI50 (KM12): 9.48 µM (inactive)
- GI50 (NCI-H460): 20.5 µM (inactive)
- GI50 (SK-OV-3): 18.5 µM (inactive)
- GI50 (NCI-H23): 21.4 µM (inactive)
- GI50 (SNB-75): 15.6 µM (inactive)
- GI50 (RPMI-8226): 2.11 µM (inactive)
- GI50 (786-0): 12.3 µM (inactive)
- GI50 (LOX IMVI): 2.72 µM (inactive)
- GI50 (HCC 2998): 19.5 µM (inactive)
- GI50 (BT-549): 20.9 µM (inactive)
- GI50 (NCI/ADR-RES): 6.98 µM (inactive)
- GI50 (HL-60): 3.25 µM (inactive)
- GI50 (NCI-H522): 1.08 µM (active)
- GI50 (OVCAR-3): 11.3 µM (inactive)
- GI50 (T47D): 2.79 µM (inactive)
- GI50 (A549): 20.2 µM (inactive)
- GI50 (HCT-15): 2.42 µM
- GI50 (OVCAR-5): 19.6 µM (inactive)
- GI50 (HOP-62): 18.1 µM (inactive)
